These are literature values, as cited in patent US20080182860A1, “Pyrimidine Compounds as Purine Receptor Antagonist” (VERNALIS (R&D) LTD., priority 2004, published 2008).

Each structure is given as a SMILES string.

The subject of one data set is Parkinsonian patients. Particulars: 150 mg/day slow release oral.

As for `CCCn1c(=O)c2c(nc(/C=C/c3ccc(OC)c(OC)c3)n2C)n(CCC)c1=O` [KF 17837, (E)-8-(3,4-dimethoxystyryl)-1,3-dipropyl-7-methylxanthine], in the data set with adenosine A2A receptor (in vivo), the “anticataleptic effects of a subthreshold dose of L-DOPA plus benserazide” value is given as “potentiated”; the “catalepsy induced by haloperidol and reserpine” value is “reduced”. Besides, the “cataleptic responses induced by intracerebroventricular CGS 21680” value in the data set with adenosine A2A receptor (oral administration) is on record as “significantly ameliorated”.
Take `Cn1c(=O)c2[nH]cnc2n(C)c1=O` [Theophylline, 1,3-dimethylxanthine]: the serum theophylline levels with Parkinsonian patients (after one week, 15 Parkinsonian patients) is on record as 4.44 mg/L. Also, in the data set on Parkinsonian patients (up to 12 weeks), the “mean objective disability scores” value is “significant improvements”.
